The results in this text go back to patent US20070173462A1, “Treatment of diseases associated with the use of antibiotics” (Optimer Pharmaceuticals, Inc., priority 2004, published 2007).

What all share (format): cell-based
Test [1] deals with Enterobacteiaceae. As to the kind of experiment: MIC, clinical isolates (Table 3). Particulars: n=28. The source says:
(§1) Compound I was additionally tested against anaerobic clinical isolates and against aerobic bacteria. […] The compound was also active against clinical strains of Staphylococcus sp. and Enterococcus sp.

In test [2] the test system is Staphylococcus sp. Nature of the test: MIC, clinical isolates (Table 3).
Source text: as §1

Test [3] concerns Pseudomonas sp. As to the kind of experiment: MIC, clinical isolates (Table 3). Particulars: n=15.
Source text: as §1

Test [4] deals with Eubacterium sp. Nature of the test: MIC, clinical isolates (Table 3). Particulars: n=26.
Source text: as §1

For test [5], the system named is Streptococcus sp. As to the kind of experiment: MIC, clinical isolates (Table 3). Particulars: n=10.
Source text: as §1

Test [6] deals with Enterococcus sp. Nature of the test: MIC, clinical isolates (Table 3).
Source text: as §1

The subject of test [7] is C. ramosum. Nature of the test: microbe, parasite or virus in culture. Conditions: Thomasclavelia ramosa; clinical isolates, n=10.

The structures appear in SMILES notation. ≈ marks a conversion by molar mass, not a printed value. Some results are limits rather than exact numbers.

As for `CCc1c(Cl)c(O)c(Cl)c(O)c1C(=O)O[C@H]1[C@H](O)[C@H](OC)[C@H](OC/C2=C\C=C\C[C@H](O)/C(C)=C/[C@H](CC)C(O[C@@H]3OC(C)(C)[C@@H](OC(=O)C(C)C)[C@H](O)[C@@H]3O)/C(C)=C/C(C)=C/C[C@@H](C(C)O)OC2=O)O[C@@H]1C` (some centres unmarked) [Compound I], the MIC50 was more than 64 µg/mL in test [1]; 2 µg/mL (≈ 1.89 µM) in test [2] (Staphylococcus, clinical isolates, n=10); more than 64 µg/mL in test [3] (Pseudomonas); 32 µg/mL (≈ 30.2 µM) in test [4]; 16 µg/mL (≈ 15.1 µM) in test [5]; 4 µg/mL (≈ 3.78 µM) in test [6] (Enterococcus, clinical isolates, n=8). The MIC50 in test [7] was more than 1020 µg/mL. Moreover, the Range (MIC) in test [1] was more than 64 µg/mL; in test [2] (clinical isolates, n=10, in µg/mL) it was 1-8; in test [3], more than 64 µg/mL; in test [6] (clinical isolates, n=8, in µg/mL), 1-8. Also, the “activity (in words)” value in test [2] (clinical strains) and in test [6] (clinical strains) was “active” throughout. Also, the MIC90 in test [7] is more than 1020 µg/mL.
